The values below come from article PMC5421814, “A Sequence in the loop domain of hepatitis C virus E2 protein identified in silico as crucial for the selective binding to human CD81” (PLoS ONE, 2017).

Where two headings read alike, the source gives them in different places. Residues, ends and D or L forms follow the SMILES beside them.

Assay [1] has as its target T1, p_H-CD81 (human CD81 peptide) (Homo sapiens, UniProt P60033).
T1 construct: ^167[…]^188; purchased GeneMark (GMbiolab Co., Ltd., Taiwan); host or cells: chemical synthesis
Briefly: SPR binding to immobilized human CD81 peptide. Particulars: for Kd: Biacore T200, CM-5 chip, p_H-CD81 immobilized (~1000 RU), flow 30 µL/min 2 min, steady-state isotherm, monovalent model, average of three measurements ± standard deviation; for SPR response / binding (in words): various concentrations over immobilized human CD81 peptide. From the text:
(§1) Based on the in silico analysis, peptides were designed for experimental validations of the binding site predictions. Four peptides (p_E2-site1, p_E2-site2, p_H-CD81 and p_R-CD81) designed according to the ZDOCK program and MM/PBSA binding free energy calculations were chemically synthesized and purchased from GeneMark (GMbiolab Co., Ltd., Taiwan). The human and rat CD81 peptides, p_H-CD81 and p_R-CD81, and the HCV E2 peptides, p_E2-site1 and p_E2-site2, were derived from the results of molecular docking between ligand E2 and receptor CD81. Control and HCV E2 mutant peptides were also synthesized (S1 Table) for the SPR and cell based binding measurements to rule out the possible non-specific bindings in the investigations. The HCV E2 mutant peptides were designed based on the mutation studies.
(§2) SPR experiments were conducted to measure the binding efficiency of the designed ligand and receptor peptides. The SPR measurements were performed using a Biacore T200 workstation (GE Healthcare, USA). Peptides p_H-CD81 and p_R-CD81 were diluted to a concentration of 7.5 μM in a 10 mM sodium acetate buffer at pH 4.0 and immobilized onto a CM-5 sensor chip using amine coupling (EDC-NHS) for 5 min at a flow speed of 5 μL/min. Approximately 1000 response units (RU) of p_H-CD81 and p_R-CD81 were immobilized on the chip. In this study, data on the kinetics and affinity of ligand-receptor binding were obtained by flowing several different concentrations of the p_E2-site1 and p_E2-site2 over the chip sequentially at a flow rate of 30 µL/min for 2 min. The response was measured at two time points, 0 and 120 sec, to obtain information on the rate of CD81 peptides association with and dissociation from the p-E2-site1 and p-E2-site2 peptides. Equilibrium binding curves were generated and fitted using a monovalent binding model for each peptide to determine the KD of the binding of E2 peptides (p_E2-site1 and p_E2-site2) with receptor CD81 peptides (p_H-CD81 and p_R-CD81).

The target in assay [2] is T2, p_R-CD81 (rat CD81 peptide) (Rattus norvegicus, UniProt Q62745).
T2 construct: ^167[…]^188; purchased GeneMark (GMbiolab Co., Ltd., Taiwan); host or cells: chemical synthesis
Briefly: SPR binding to immobilized rat CD81 peptide. Particulars: for Kd: steady-state isotherm; for SPR response / binding (in words): various concentrations over immobilized rat CD81 peptide.
From the text: as §1, §2

For a further assay, the target named is T3, p_R-CD81 (rat).
T3 construct: rat CD81, head domain of the large extracellular loop, residues 167-188; Immobilised on a CM-5 chip by amine coupling; also called rat CD81 peptide; receptor peptide from the head domain region of rat CD81; source: synthetic peptide, bought: GeneMark (GMbiolab Co., Ltd., Taiwan)
T3 peptide: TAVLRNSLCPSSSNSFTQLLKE
Briefly: SPR; Biacore T200; p_H-CD81 or p_R-CD81 (about 1000 RU) immobilised on a CM-5 chip by amine coupling; E2 peptides flowed over at several concentrations, 30 µL/min for 2 min; equilibrium binding curves fitted with a monovalent binding model. The settings on record: both partners purified. For orientation: In SPR one partner is held on a chip, and binding of the other changes the refractive index at the surface.

The target in the next assay is T4, p_H-CD81 (human).
T4 construct: human CD81, head domain of the large extracellular loop, residues 167-188; Immobilised on a CM-5 chip by amine coupling; also called human CD81 peptide; receptor peptide from the head domain region of human CD81; source: synthetic peptide, bought: GeneMark (GMbiolab Co., Ltd., Taiwan)
T4 peptide: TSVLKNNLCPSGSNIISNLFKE
The assay is described as above. Particulars: both partners purified.

As usually defined, the Kd is the free concentration of one partner at which half of the binding sites on the other are occupied at equilibrium, for simple one-to-one binding. In the case of `CC(C)[C@H](NC(=O)[C@H](CC(=O)O)NC(=O)[C@@H](NC(=O)[C@H](CC(=O)O)NC(=O)[C@H](CC(N)=O)NC(=O)[C@H](C)NC(=O)CNC(=O)[C@H](Cc1c[nH]c2ccccc12)NC(=O)[C@H](CO)NC(=O)[C@H](Cc1ccc(O)cc1)NC(=O)[C@@H](NC(=O)[C@@H]1CCCN1C(=O)[C@H](C)NC(=O)CNC(=O)[C@H](CO)NC(=O)[C@@H](N)CCCNC(=N)N)[C@@H](C)O)[C@@H](C)O)C(=O)N[C@@H](Cc1ccccc1)C(=O)O` [p_E2-site2] (H-RSGAPTYSWGANDTDVF-OH), the Kd in assay [1] was 1.07 ± 0.09 µM; in assay [2] (p_R-CD81 immobilized, value printed in Fig 6 plot, read-out: KD (printed in the picture, Fig 6)) it was 6.4 µM.

Consider `CC[C@H](C)[C@H](N)C(=O)N[C@@H](CC(N)=O)C(=O)N[C@@H](CO)C(=O)N[C@H](C(=O)N[C@@H](C)C(=O)N[C@@H](CC(C)C)C(=O)N[C@@H](CC(N)=O)C(=O)N[C@@H](CS)C(=O)N[C@@H](CC(N)=O)C(=O)N[C@@H](CCC(=O)O)C(=O)N[C@@H](CO)C(=O)N[C@@H](CC(C)C)C(=O)N[C@@H](CC(N)=O)C(=O)N[C@H](C(=O)NCC(=O)N[C@@H](Cc1c[nH]c2ccccc12)C(=O)N[C@@H](CC(C)C)C(=O)N[C@@H](C)C(=O)NCC(=O)N[C@@H](CC(C)C)C(=O)N[C@@H](Cc1ccccc1)C(=O)N[C@@H](Cc1ccc(O)cc1)C(=O)N[C@@H](CCC(N)=O)C(=O)O)[C@@H](C)O)[C@@H](C)O` [p_E2-site1] (H-INSTALNCNESLNTGWLAGLFYQ-OH), for which the dissociation constant Kd in assay [1] was 7.96 ± 1.7 µM; in assay [2] (Biacore T200, CM-5 chip, p_R-CD81 immobilized (~1000 RU), flow 30 µL/min 2 min, monovalent model, average of three measurements ± standard deviation, read-out: KD), 13.8 ± 2.46 µM.

As for “SENHLRHCLSCSKCRKEM [p_random-18, control (random) peptide]”, the “SPR response / binding (in words)” value in assay [1] and in assay [2] was “not significantly increased” in each case.

On to “CPLNGSTVYGHLRHCLSCSGTMVKF [p_random-25, control (random) peptide]”, for which the “SPR response / binding (in words)” value in assay [1] and in assay [2] was “not significantly increased” in each case.

B1: p_E2-site2 (peptide)
peptide: RSGAPTYSWGANDTDVF
notes: hepatitis C virus envelope glycoprotein E2, residues 521-537 of the polyprotein; also called E2-site2 peptide; E2-s2; source: synthetic peptide, bought: GeneMark (GMbiolab Co., Ltd., Taiwan)
For B1, the dissociation constant Kd with p_R-CD81 came out at 6.38 µM; in the assay with p_H-CD81, 1.07 µM.

B2: p_E2-site1 (peptide)
peptide: INSTALNCNESLNTGWLAGLFYQ
notes: hepatitis C virus envelope glycoprotein E2, residues 422-444 of the polyprotein; also called E2-site1 peptide; E2-s1; source: synthetic peptide, bought: GeneMark (GMbiolab Co., Ltd., Taiwan)
With B2, the Kd with p_R-CD81 was determined as 13.8 µM; with p_H-CD81, 7.96 µM.
